Data as given in ChEMBL document CHEMBL4732242 (Eur J Med Chem, 2021).

Legend:
[1] = target: T1, Dual specificity protein kinase CLK3 (Homo sapiens, UniProt P49761); experiment: Inhibition of CLK3 (unknown origin) by NanoBRET cellular target engagement assay
[2] = target: Mitogen-activated protein kinase kinase kinase 10 (Homo sapiens, UniProt Q02779); experiment: Inhibition of MLK2 (unknown origin) by NanoBRET cellular target engagement assay
[3] = target: T2, Dual specificity protein kinase CLK4 (Homo sapiens, UniProt Q9HAZ1); experiment: Inhibition of CLK4 (unknown origin) by NanoBRET cellular target engagement assay
[4] = target: T3, Dual specificity protein kinase CLK1 (Homo sapiens, UniProt P49759); experiment: Inhibition of CLK1 (unknown origin) by NanoBRET cellular target engagement assay
[5] = target: T4, Dual specificity tyrosine-phosphorylation-regulated kinase 2 (Homo sapiens, UniProt Q92630); experiment: Inhibition of DYRK2 (unknown origin) by NanoBRET cellular target engagement assay
T4 sequence (Q92630 whole entry): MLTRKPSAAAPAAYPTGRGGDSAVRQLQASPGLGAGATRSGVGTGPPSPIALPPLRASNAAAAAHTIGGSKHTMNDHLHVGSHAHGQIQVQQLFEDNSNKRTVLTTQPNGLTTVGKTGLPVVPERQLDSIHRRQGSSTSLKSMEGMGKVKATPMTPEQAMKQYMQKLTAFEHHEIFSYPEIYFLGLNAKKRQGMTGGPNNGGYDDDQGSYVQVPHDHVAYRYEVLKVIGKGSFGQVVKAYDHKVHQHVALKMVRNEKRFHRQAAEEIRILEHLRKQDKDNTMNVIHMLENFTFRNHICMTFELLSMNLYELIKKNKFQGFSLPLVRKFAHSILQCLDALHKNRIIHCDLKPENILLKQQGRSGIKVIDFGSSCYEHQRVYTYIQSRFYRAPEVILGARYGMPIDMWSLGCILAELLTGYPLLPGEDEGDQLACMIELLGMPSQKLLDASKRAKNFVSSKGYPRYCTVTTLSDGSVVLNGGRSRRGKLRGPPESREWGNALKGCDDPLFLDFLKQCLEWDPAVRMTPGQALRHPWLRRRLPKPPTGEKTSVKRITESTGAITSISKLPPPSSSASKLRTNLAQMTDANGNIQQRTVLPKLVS

[6] = target: T5, Dual specificity protein kinase CLK2 (Homo sapiens, UniProt P49760); experiment: Inhibition of CLK2 (unknown origin) by NanoBRET cellular target engagement assay
[7] = target: Mitogen-activated protein kinase kinase kinase 9 (Homo sapiens, UniProt P80192); experiment: Inhibition of MLK1 (unknown origin) by NanoBRET cellular target engagement assay
[8] = target: T5, Dual specificity protein kinase CLK2; experiment: Inhibition of human recombinant CLK2 using YRRAAVPPSPSLSR substrate by radiometric scintillation assay
[9] = target: Dual specificity tyrosine-phosphorylation-regulated kinase 1A (Homo sapiens, UniProt Q13627); experiment: Inhibition of human full length recombinant DYRK1A using RRRFRPASPLRGPP substrate by radiometric scintillation assay
[10] = target: Homeodomain-interacting protein kinase 2 (Homo sapiens, UniProt Q9H2X6); experiment: Inhibition of human recombinant HIPK2 using myelin substrate by radiometric scintillation assay
[11] = target: T6, Homeodomain-interacting protein kinase 3 (Homo sapiens, UniProt Q9H422); experiment: Inhibition of human recombinant HIPK3 using myelin substrate by radiometric scintillation assay
[12] = target: T3, Dual specificity protein kinase CLK1; experiment: Inhibition of human recombinant CLK1 using ERMRPRKRQGSVR substrate by radiometric scintillation assay
[13] = target: T2, Dual specificity protein kinase CLK4; experiment: Inhibition of human recombinant CLK4 using YRRAAVPPSPSLS substrate by radiometric scintillation assay
[14] = target: T1, Dual specificity protein kinase CLK3; experiment: Inhibition of human full length recombinant CLK3 using ERMRPRKRQGSVR substrate by radiometric scintillation assay
[15] = target: Dual specificity tyrosine-phosphorylation-regulated kinase 1B (Homo sapiens, UniProt Q9Y463); experiment: Inhibition of human full length recombinant DYRK1B using RRRFRPASPLRGPP substrate by radiometric scintillation assay
[16] = target: Homeodomain-interacting protein kinase 1 (Homo sapiens, UniProt Q86Z02); experiment: Inhibition of human recombinant HIPK1 using myelin substrate by radiometric scintillation assay
[17] = target: T4, Dual specificity tyrosine-phosphorylation-regulated kinase 2; experiment: Inhibition of human full length recombinant DYRK2 using casein substrate by radiometric scintillation assay
MCF7 = experiment: Cytotoxicity against human MCF7 cells assessed as reduction in cell viability incubated for 48 hrs by CyQuant assay; assay type: functional, cell-based; conditions: MCF7, 48 h
[18] = target: Cyclin-dependent kinase-like 3 (Homo sapiens, UniProt Q8IVW4); experiment: Inhibition of CDKL3 (unknown origin) by NanoBRET cellular target engagement assay
[19] = target: T6, Homeodomain-interacting protein kinase 3; experiment: Inhibition of HIPK3 (unknown origin)

T6 sequence (Q9H422 whole entry): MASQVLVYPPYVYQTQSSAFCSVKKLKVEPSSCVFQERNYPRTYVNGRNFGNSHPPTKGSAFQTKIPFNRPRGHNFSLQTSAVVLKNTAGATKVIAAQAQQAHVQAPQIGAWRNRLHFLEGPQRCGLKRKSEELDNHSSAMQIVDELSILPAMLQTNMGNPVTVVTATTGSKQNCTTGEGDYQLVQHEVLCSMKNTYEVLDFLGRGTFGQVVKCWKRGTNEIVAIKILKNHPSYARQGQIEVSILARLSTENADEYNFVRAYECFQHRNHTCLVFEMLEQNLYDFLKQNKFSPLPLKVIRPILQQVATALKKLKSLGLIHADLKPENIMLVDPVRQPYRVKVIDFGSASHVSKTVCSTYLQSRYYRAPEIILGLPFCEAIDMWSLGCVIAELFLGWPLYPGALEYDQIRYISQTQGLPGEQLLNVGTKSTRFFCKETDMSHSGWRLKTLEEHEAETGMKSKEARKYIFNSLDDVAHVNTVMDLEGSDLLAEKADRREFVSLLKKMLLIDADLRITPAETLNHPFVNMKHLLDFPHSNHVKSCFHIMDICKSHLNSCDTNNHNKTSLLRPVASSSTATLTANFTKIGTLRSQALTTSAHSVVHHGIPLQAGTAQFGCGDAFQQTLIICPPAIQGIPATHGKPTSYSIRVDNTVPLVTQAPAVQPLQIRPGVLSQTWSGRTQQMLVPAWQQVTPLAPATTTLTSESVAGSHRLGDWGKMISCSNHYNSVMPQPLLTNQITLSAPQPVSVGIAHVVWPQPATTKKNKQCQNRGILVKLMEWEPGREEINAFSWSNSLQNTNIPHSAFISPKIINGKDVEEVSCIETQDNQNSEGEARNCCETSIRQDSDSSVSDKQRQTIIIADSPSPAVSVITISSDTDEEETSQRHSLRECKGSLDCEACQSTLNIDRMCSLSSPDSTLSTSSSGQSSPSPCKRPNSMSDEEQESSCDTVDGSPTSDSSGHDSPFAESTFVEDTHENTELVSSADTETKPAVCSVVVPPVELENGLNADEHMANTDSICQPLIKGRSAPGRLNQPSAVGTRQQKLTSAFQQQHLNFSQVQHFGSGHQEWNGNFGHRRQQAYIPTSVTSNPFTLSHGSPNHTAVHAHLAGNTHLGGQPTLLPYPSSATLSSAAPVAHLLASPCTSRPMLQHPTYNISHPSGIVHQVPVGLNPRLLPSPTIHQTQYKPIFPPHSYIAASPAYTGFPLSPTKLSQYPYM
T2 sequence (Q9HAZ1 whole entry): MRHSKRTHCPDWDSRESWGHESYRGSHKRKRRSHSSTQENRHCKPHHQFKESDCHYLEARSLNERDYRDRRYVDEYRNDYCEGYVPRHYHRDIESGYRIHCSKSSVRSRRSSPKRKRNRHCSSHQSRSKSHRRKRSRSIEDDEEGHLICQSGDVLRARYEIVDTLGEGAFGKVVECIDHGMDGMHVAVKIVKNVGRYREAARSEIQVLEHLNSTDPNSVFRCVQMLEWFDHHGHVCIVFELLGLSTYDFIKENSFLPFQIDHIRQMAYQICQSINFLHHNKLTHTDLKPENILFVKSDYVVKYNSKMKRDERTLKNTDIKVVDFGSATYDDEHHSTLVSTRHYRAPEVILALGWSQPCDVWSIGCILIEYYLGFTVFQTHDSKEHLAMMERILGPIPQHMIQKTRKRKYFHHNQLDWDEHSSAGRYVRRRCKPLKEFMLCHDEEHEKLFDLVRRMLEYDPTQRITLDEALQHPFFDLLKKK
Chain of Homeodomain-interacting protein kinase 1 (Q86Z02 whole entry): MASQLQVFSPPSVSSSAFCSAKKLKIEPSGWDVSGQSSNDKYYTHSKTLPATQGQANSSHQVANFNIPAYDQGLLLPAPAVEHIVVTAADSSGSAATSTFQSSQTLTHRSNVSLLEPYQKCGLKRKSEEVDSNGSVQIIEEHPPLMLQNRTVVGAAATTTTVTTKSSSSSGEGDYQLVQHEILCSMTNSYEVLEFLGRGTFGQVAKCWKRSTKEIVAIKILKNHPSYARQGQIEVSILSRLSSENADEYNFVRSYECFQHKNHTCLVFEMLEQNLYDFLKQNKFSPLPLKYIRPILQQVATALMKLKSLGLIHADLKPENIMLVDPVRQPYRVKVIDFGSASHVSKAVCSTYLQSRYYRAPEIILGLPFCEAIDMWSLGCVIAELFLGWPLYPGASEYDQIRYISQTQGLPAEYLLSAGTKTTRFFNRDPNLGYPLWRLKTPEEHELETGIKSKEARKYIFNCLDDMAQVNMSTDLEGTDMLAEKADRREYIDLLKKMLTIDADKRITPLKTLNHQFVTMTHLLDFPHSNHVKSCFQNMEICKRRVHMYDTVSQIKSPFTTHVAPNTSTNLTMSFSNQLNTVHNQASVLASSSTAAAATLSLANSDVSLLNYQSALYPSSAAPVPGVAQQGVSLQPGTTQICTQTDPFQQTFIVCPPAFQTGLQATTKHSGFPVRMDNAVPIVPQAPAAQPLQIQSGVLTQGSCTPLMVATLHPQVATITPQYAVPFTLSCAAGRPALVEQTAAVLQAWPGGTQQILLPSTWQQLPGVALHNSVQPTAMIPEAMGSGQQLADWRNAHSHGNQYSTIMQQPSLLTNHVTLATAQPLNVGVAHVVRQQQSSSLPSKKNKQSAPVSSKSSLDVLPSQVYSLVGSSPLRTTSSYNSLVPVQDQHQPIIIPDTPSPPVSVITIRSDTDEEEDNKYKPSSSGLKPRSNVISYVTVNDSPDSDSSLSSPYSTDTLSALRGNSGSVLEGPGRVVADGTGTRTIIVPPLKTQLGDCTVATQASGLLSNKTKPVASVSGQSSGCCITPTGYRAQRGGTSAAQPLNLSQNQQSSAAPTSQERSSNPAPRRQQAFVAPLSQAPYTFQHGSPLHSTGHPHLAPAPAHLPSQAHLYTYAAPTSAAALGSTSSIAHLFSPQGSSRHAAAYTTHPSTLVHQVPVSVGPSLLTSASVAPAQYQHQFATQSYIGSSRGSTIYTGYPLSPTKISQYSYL
T1 sequence (P49761 whole entry): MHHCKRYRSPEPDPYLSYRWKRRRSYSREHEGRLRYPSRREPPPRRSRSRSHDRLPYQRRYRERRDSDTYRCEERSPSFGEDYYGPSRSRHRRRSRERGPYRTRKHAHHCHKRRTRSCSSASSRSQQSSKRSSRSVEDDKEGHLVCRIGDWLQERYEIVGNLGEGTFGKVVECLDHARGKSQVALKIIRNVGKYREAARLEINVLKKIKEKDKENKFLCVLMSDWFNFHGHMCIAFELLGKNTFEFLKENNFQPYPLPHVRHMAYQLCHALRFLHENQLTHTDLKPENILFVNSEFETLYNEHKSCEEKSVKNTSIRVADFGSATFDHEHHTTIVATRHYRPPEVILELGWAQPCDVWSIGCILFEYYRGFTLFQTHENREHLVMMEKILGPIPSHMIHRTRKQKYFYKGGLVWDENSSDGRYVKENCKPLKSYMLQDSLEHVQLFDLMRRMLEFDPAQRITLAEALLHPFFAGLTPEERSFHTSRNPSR
T5 sequence (P49760 whole entry): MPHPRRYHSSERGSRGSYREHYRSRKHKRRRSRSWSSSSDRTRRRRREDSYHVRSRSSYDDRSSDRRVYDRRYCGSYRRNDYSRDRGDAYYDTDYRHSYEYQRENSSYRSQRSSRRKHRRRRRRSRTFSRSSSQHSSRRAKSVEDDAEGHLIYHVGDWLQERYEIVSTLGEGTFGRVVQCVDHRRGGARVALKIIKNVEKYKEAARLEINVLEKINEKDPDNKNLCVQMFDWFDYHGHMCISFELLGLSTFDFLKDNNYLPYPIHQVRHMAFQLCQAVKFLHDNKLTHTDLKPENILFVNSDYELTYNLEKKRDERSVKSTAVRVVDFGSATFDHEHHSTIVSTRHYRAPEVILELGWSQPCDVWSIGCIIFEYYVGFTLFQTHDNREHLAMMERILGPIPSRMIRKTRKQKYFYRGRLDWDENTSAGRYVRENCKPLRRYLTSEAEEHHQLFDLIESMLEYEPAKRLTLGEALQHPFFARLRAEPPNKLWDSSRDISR
T3 sequence (P49759 whole entry): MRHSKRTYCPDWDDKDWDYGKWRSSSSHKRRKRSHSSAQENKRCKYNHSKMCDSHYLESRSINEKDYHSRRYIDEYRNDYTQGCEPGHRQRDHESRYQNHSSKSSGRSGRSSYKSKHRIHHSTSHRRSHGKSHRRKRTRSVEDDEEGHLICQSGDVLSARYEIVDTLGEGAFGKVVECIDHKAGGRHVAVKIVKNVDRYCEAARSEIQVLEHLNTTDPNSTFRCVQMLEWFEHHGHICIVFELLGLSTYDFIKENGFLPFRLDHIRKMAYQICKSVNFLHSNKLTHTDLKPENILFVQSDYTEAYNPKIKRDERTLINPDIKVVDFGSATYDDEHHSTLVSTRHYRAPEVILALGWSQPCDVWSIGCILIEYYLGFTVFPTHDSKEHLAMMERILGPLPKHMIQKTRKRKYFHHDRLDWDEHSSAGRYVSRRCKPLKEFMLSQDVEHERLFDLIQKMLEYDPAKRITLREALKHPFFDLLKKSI
Chain of Dual specificity tyrosine-phosphorylation-regulated kinase 1B (Q9Y463 whole entry): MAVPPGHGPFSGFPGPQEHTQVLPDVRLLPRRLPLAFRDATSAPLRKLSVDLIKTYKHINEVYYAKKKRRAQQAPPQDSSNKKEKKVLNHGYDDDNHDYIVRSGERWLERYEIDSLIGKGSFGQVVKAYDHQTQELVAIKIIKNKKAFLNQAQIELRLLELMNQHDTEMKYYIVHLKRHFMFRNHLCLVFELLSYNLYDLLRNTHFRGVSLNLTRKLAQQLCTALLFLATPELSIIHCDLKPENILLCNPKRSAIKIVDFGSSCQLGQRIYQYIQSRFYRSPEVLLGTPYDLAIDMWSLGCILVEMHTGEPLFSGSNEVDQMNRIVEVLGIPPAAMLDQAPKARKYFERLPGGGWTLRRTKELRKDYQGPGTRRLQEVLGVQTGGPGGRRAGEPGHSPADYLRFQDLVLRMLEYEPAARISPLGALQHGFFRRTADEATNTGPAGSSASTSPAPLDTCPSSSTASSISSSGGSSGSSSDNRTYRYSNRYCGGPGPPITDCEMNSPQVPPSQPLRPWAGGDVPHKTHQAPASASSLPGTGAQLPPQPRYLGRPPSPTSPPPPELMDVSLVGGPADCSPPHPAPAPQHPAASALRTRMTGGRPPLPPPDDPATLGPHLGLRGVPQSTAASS

Row | IC50 [1] | IC50 [2] | IC50 [3] | IC50 [4] | IC50 [5] | IC50 [6] | IC50 [7] | IC50 [18] | IC50 [19] | Structure (SMILES) | IC50 [8] | IC50 [9] | IC50 [10] | IC50 [11] | IC50 [12] | IC50 [13] | IC50 [14] | IC50 [15] | IC50 [16] | IC50 [17] | IC50 (MCF7)
1 | > 3 µM | > 3 µM | > 3 µM | > 3 µM | > 3000 nM | > 3 µM | > 3 µM |  |  | COC(=N)c1nc2ccc3ncnc(Nc4ccc(OC)cc4F)c3c2s1 |  |  |  |  |  |  |  |  |  |  | 
2 |  |  |  |  |  |  |  |  |  | CC1(c2ccc(-c3coc4ccc(-c5cn[nH]c5)nc34)cc2)CC1 | 155 nM | > 3 µM | 68 nM | 441 nM | 308 nM | 320 nM | > 3 µM | > 3 µM | 220 nM | > 3 µM | 
3 |  |  |  |  |  |  |  |  |  | CN1CCC(c2cccc(-c3coc4ccc(-c5cnn(C)c5)nc34)c2)CC1 | 667 nM | 0.568 µM | 260 nM | 692 nM | 169 nM | 116 nM | > 3 µM | > 3 µM | 354 nM | > 3 µM | 
4 |  |  |  |  |  |  |  |  |  | C=C(C)c1ccc(-c2coc3ccc(-c4cn[nH]c4)nc23)cc1 | 40 nM | 1.37 µM | 41 nM | 65 nM | 68 nM | 42 nM | > 3 µM | > 3 µM | 51 nM | > 3 µM | 
5 |  |  |  |  |  |  |  |  |  | COc1ccc(-c2coc3ccc(-c4cn[nH]c4)nc23)cc1 | 39 nM |  | 15 nM | 66 nM |  | 46 nM |  |  | 33 nM | 1 µM | 
6 |  |  |  |  |  |  |  |  |  | Cn1cc(-c2ccc3occ(-c4ccc(C(C)(C)C)cc4)c3n2)cn1 | > 3000 nM | > 3 µM | > 3000 nM | > 3000 nM | > 3000 nM | > 3000 nM | > 3 µM | > 3 µM | > 3000 nM | > 3 µM | 
7 |  |  |  |  |  |  |  |  |  | CC(C)(C)c1ccc(-c2coc3ccc(-c4cnsc4)nc23)cc1 | > 3000 nM | > 3 µM | > 3000 nM | > 3000 nM | > 3000 nM | > 3000 nM | > 3 µM | > 3 µM | > 3000 nM | > 3 µM | 
8 |  |  |  |  |  |  |  |  |  | c1ccc2cc(-c3coc4ccc(-c5cn[nH]c5)nc34)ccc2c1 | 25 nM |  | 5 nM | 38 nM |  | 31 nM |  |  | 16 nM | 1.43 µM | 
9 |  |  |  |  |  |  |  |  |  | Cn1cc(-c2ccc3occ(-c4cccc(-c5ccncc5)c4)c3n2)cn1 |  |  |  |  |  |  |  |  |  |  | 4.6 µM
10 |  |  |  |  |  |  |  |  |  | c1n[nH]cc1-c1ccc2occ(-c3ccc(C45CC6CC(CC(C6)C4)C5)cc3)c2n1 | > 3000 nM | > 3 µM | > 3000 nM | > 3000 nM | > 3000 nM | > 3000 nM | > 3 µM | > 3 µM | > 3000 nM | > 3 µM | 
11 |  |  |  |  |  |  |  |  |  | Cn1cc(-c2ccc3occ(-c4cccc(-c5cc[nH]n5)c4)c3n2)cn1 | 16 nM | 0.116 µM | 30 nM | 128 nM | 14 nM | 15 nM | 1.64 µM | 1.89 µM | 125 nM | > 3 µM | 
12 |  |  |  |  |  |  |  |  |  | CC(C)(C)c1ccc(-c2coc3ccc(-c4nn[nH]n4)nc23)cc1 | > 3000 nM | > 3 µM | 357 nM | 720 nM | > 3000 nM | > 3000 nM | > 3 µM | > 3 µM | 545 nM | > 3 µM | 
13 |  |  |  |  |  |  |  |  |  | c1n[nH]cc1-c1ccc2occ(-c3ccc(C4CCCCC4)cc3)c2n1 | > 3000 nM | > 3 µM | 654 nM | > 3000 nM | 2110 nM | 776 nM | > 3 µM | > 3 µM | > 3000 nM | > 3 µM | 
14 |  |  |  |  |  |  |  |  |  | c1ccc(-c2ccc(-c3coc4ccc(-c5cn[nH]c5)nc34)cc2)cc1 | 529 nM | > 3 µM | 172 nM | 807 nM | 114 nM | 126 nM | > 3 µM | > 3 µM | 278 nM | > 3 µM | 
15 |  |  |  |  |  |  |  |  |  | c1ccc(Cc2ccc(-c3coc4ccc(-c5cn[nH]c5)nc34)cc2)cc1 | 1840 nM | > 3 µM | 484 nM | > 3000 nM | 450 nM | 355 nM | > 3 µM | > 3 µM | 921 nM | > 3 µM | 
16 |  |  |  |  |  |  |  |  |  | Cn1cc(-c2ccc3occ(-c4cccc(-c5cn[nH]c5)c4)c3n2)cn1 | 37 nM | 0.139 µM | 102 nM | 164 nM | 16 nM | 19 nM | 1.59 µM | 1.3 µM | 177 nM | > 3 µM | 30 µM
17 |  |  |  |  |  |  |  |  |  | c1ccc(-c2coc3ccc(-c4cn[nH]c4)nc23)cc1 | 72 nM |  | 42 nM | 128 nM |  | 41 nM |  |  | 62 nM | 1.15 µM | 
18 |  |  |  |  |  |  |  |  |  | Cn1cc(-c2ccc3occ(-c4ccc(C(C)(C)C)cc4)c3n2)nn1 | > 3000 nM | > 3 µM | > 3000 nM | > 3000 nM | > 3000 nM | > 3000 nM | > 3 µM | > 3 µM | > 3000 nM | > 3 µM | 
19 |  |  |  |  |  |  |  |  |  | Cn1cc(-c2coc3ccc(-c4cn[nH]c4)nc23)cn1 | 176 nM |  | 28 nM |  |  | 45 nM |  |  | 235 nM | 1.21 µM | 
20 |  |  |  |  |  |  |  |  |  | Cn1cc(-c2ccc3occ(-c4cccc(C5CCNCC5)c4)c3n2)cn1 | 90 nM | 0.324 µM | 179 nM | 300 nM | 59 nM | 52 nM | > 3 µM | > 3 µM | 264 nM | > 3 µM | 
21 |  |  |  |  |  |  |  |  |  | Cn1ccc(-c2ccc3occ(-c4ccc(C(C)(C)C)cc4)c3n2)n1 | > 3000 nM | > 3 µM | > 3000 nM | > 3000 nM | > 3000 nM | > 3000 nM | > 3 µM | > 3 µM | > 3000 nM | > 3 µM | 
22 |  |  |  |  |  |  |  |  |  | CC(C)Cc1ccc(-c2coc3ccc(-c4cn[nH]c4)nc23)cc1 | 827 nM | > 3 µM | 501 nM | 1230 nM | 671 nM | 896 nM | > 3 µM | > 3 µM | 685 nM | > 3 µM | 
23 |  |  |  |  |  |  |  |  |  | CC(C)(C)c1ccc(-c2coc3ccc(-c4cnn(CCN5CCOCC5)c4)nc23)cc1 | > 3000 nM | > 3 µM | > 3000 nM | > 3000 nM | > 3000 nM | > 3000 nM | > 3 µM | > 3 µM | > 3000 nM | > 3 µM | 
24 |  |  |  |  |  |  |  |  |  | Cn1cc(-c2cccc(-c3coc4ccc(-c5cnn(C)c5)nc34)c2)cn1 | 16 nM | 0.147 µM | 70 nM | 125 nM | 18 nM | 17 nM | > 3 µM | 2.42 µM | 209 nM | 0.771 µM | > 100 µM
25 |  |  |  |  |  |  |  |  |  | CC(C)(C)c1ccc(-c2coc3ccc(-c4cc[nH]n4)nc23)cc1 | > 3000 nM | > 3 µM | 1280 nM | > 3000 nM | > 3000 nM | > 3000 nM | > 3 µM | > 3 µM | > 3000 nM | > 3 µM | 
26 |  |  |  |  | 570 nM |  |  | 1100 nM |  | O=C(Nc1c[nH]nc1-c1nc2cc(CN3CCOCC3)ccc2[nH]1)NC1CC1 [AT-9283] |  |  |  |  |  |  |  |  |  |  | 
27 |  |  |  |  |  |  |  |  | 100 nM | CN(C)C[C@@H]1CCn2cc(c3ccccc32)C2=C(C(=O)NC2=O)c2cn(c3ccccc23)CCO1 [RUBOXISTAURIN] |  |  |  |  |  |  |  |  |  |  | 
